Common to all, as to type: in vivo, C57BL/6N male mice
Experiment [1] deals with inflammatory bowel disease-induced mouse model (2.5% DSS). Kind of experiment: Disease activity index (DAI) evaluation II, combined vs single extracts (Example 5). Particulars: 100 mg/kg oral, 2.5% DSS for 5 days, 5 days after administration. The procedure:
In order to evaluate whether the combined extract has a synergistic effect compared to that of individual use of an extract of […] folium and an extract of Juglans mandshurica fruits, 6-week-old C57BL/6N male mice were purchased and pre-bred for one week, and then they were randomly divided into a total of 6 groups of 7 mice per group, and an experiment was conducted as shown in Table 3 below. [table] 2.5% dextran sulfate sodium (DSS) diluted in sterile water was administered in drinking water for a total of 5 days, and 5-aminosalicylic acid (5-ASA), which is a therapeutic agent for inflammatory bowel disease, an extract of […] folium alone, an extract of Juglans mandshurica fruits alone, or the combined extract of the present invention was orally administered for a total of 7 days from 2 days prior to the day of administration with DSS. In addition, the disease activity index was measured in the same manner as the method used in Table 2 above, and the results 5 days after administration are shown in FIG. 5.

Experiment [2] has as its system inflammatory bowel disease animal model (2.5% DSS). Kind of experiment: Body weight change in DSS-treated mice (Example 1). The note with it: 100 mg/kg oral, 2.5% DSS in drinking water, 7 days; body weight before DSS = 100%; negative control 89.31±2.75%, normal 105.64±0.54%. The procedure:
6-week-old C57BL/6N male mice were purchased and pre-bred for one week, and then they were randomly divided into a total of 5 groups of 8 mice per group, and an experiment was conducted as shown in Table 1 below. 2.5% dextran sulfate sodium (DSS) diluted in sterile water was administered in drinking water for a total of 8 days, and 5-aminosalicylic acid (5-ASA), which is a therapeutic agent for inflammatory bowel disease, or the combined extract of the present invention was orally administered for a total of 10 days from 2 days prior to the day of administration with DSS. [table] Body weight loss is a representative symptom of inflammatory bowel disease (Scientific Reports volume 10, Article number: 3829 (2020)). The body weight of the mouse was measured once a day at the same time (10 am) using an electronic scale. The rate of change in body weight of each group was obtained by summing the body weight of 8 mice per group and then dividing by 8. The average body weight immediately before the start of administration of 2.5% DSS in drinking water was set as 100%, and the average body weight of each group was calculated every day to measure the rate of change in body weight. Significance was verified by performing a Student's T test for each group between the negative control group to which 2.5% DSS was administered in drinking water and the experimental group.

For experiment [3], the system named is myeloperoxidase (MPO). The experiment in a line: Myeloperoxidase (MPO) activity in large intestine tissue, Mouse MPO ELISA kit (Example 6). Particulars: 100 mg/kg oral for 7 days, 2.5% DSS for 5 days. The procedure:
MPO is an enzyme mainly found in neutrophils, and the activity of MPO in tissues is an indicator of neutrophil infiltration, so it is an indicator of inflammatory response and correlates with the level of intestinal damage caused by inflammatory colitis. Therefore, in order to measure the activity of MPO according to the administration of the combined extract of the present invention, an experiment was conducted as shown in Table 3 of Example 5 above.
2.5% dextran sulfate sodium (DSS) diluted in sterile water was administered in drinking water for a total of 5 days, and 5-aminosalicylic acid (5-ASA), which is a therapeutic agent for inflammatory bowel disease, an extract of Isatidis folium alone, an extract of Juglans mandshurica fruits alone, or the combined extract of the present invention was orally administered for a total of 7 days from 2 days prior to the day of administration with DSS. In order to measure the activity of MPO, the Mouse MPO ELISA kit (HK210-02, Hycult biotechnology) was used. […] The homogenized sample was centrifuged at 1500×g for 15 minutes to obtain a supernatant, and then the activity of MPO was measured using the supernatant.

The subject of experiment [4] is inflammatory bowel disease animal model (2.5% DSS). The experiment in a line: Length of large intestine in DSS-treated mice (Example 2). Particulars: 100 mg/kg oral, last day of administration, negative control 5.44±0.12 cm, normal 7.48±0.30 cm. The procedure:
6-week-old C57BL/6N male mice were purchased and pre-bred for one week, and then they were randomly divided into a total of 5 groups of 8 mice per group, and an experiment was conducted as shown in Table 1 below. 2.5% dextran sulfate sodium (DSS) diluted in sterile water was administered in drinking water for a total of 8 days, and 5-aminosalicylic acid (5-ASA), which is a therapeutic agent for inflammatory bowel disease, or the combined extract of the present invention was orally administered for a total of 10 days from 2 days prior to the day of administration with DSS. It is known that there is a sufficient correlation between the shortened large intestine and histological changes, and the length of the large intestine is commonly used as a morphological parameter of the degree of inflammation. Therefore, in order to evaluate the length of the large intestine of the mouse according to the administration of the combined extract of the present invention, the mouse of Example 1 was sacrificed on the last day of each administration, and then the length of the large intestine was measured, and the average length is shown in FIG. 2.

For experiment [5] the test system is unchanged. The experiment in a line: Weight and length of spleen (spleen ratio) in DSS-treated mice (Example 3). The note with it: 100 mg/kg oral, last day of administration. The procedure:
6-week-old C57BL/6N male mice were purchased and pre-bred for one week, and then they were randomly divided into a total of 5 groups of 8 mice per group, and an experiment was conducted as shown in Table 1 below.
2.5% dextran sulfate sodium (DSS) diluted in sterile water was administered in drinking water for a total of 8 days, and 5-aminosalicylic acid (5-ASA), which is a therapeutic agent for inflammatory bowel disease, or the combined extract of the present invention was orally administered for a total of 10 days from 2 days prior to the day of administration with DSS.
A representative symptom that can occur in relation to inflammatory bowel disease includes splenitis. As such, when the spleen becomes inflamed, the size of the spleen is increased by its nature (Nutrients 2019, 11 (11), 2776), and in fact, it is known that the spleen becomes enlarged in the model of IBD induced after DSS treatment (Biol. Pharm. Bull. 43, 450-457 (2020)). Therefore, in order to evaluate the level of inflammation in the spleen of mice according to the administration of the combined extract of the present invention, the mouse of Example 1 was sacrificed on the last day of each administration, and then the weight and length of the spleen of each group compared to those of the negative control group were measured, and the spleen ratio is shown.

With `Nc1ccc(O)c(C(=O)O)c1` [5-ASA, 5-aminosalicylic acid], the “disease activity index compared to negative control group” value in experiment [1] is “decreased”. For the same molecule, in experiment [2], the “rate of change in body weight” value is on record as 91.38±2.01%. Further, the “decrease of the activity of MPO compared to negative control group” value in experiment [3] amounted to 9.6%. For the same molecule, the “length of the large intestine” value in experiment [4] was 5.28±0.08 cm. For the same molecule, the “weight and length of the spleen compared to negative control group” value in experiment [5] is reported as “decreased”.

The values are drawn from patent US20240342235A1, “COMPOSITION FOR TREATING INFLAMMATORY BOWEL DISEASE, COMPRISING COMBINED EXTRACT OF ISATIDIS FOLIUM AND JUGLANS MANDSHURICA” (MTHERA PHARMA CO., LTD., priority 2021, published 2024).
